# Experimental data as given in PMC8412142 (Journal of medicinal chemistry, 2021).
# How the values were obtained:
# [1] = Human liver microsome intrinsic clearance; conditions: human liver microsomes
# MRC5 cells = assay: MRC5 cell toxicity; type: cell-based; conditions: in words
# Mouse plasma stability = type: in vitro ADME; conditions: in words
# Caco-2 = Caco-2 permeability and efflux assay; type: in vitro ADME
# [2] = In vivo pharmacokinetics of 29d, 10 mg/kg ip; set-up: species or system BALB/c mice
Compound,HLM Clint [1],toxicity in mammalian cells (MRC5 cells),other results
"3-(5-(Piperidin-1-yl)-1H-pyrrolo[2,3-b]pyridin-3-yl)benzonitrile [24c]",44 μg/min/mg protein,–,–
"5-(1-methyl-1H-pyrazol-4-yl)-3-(4-(trifluoromethyl)phenyl)-1H-pyrrolo[2,3-b]pyridine [13i]",66 μg/min/mg protein,–,–
"Cn1cc(-c2cnc3[nH]cc(-c4cccc([N+](=O)[O-])c4)c3c2)cn1 [13t, 5-(1-Methyl-1H-pyrazol-4-yl)-3-(3-nitrophenyl)-1H-pyrrolo[2,3-b]pyridine]",–,showed signs of toxicity in mammalian cells,–
"Cn1cc(-c2cnc3[nH]cc(-c4ccc(O)cc4)c3c2)cn1 [13u, 4-(5-(1-Methyl-1H-pyrazol-4-yl)-1H-pyrrolo[2,3-b]pyridin-3-yl)phenol]",–,showed signs of toxicity in mammalian cells,–
N#Cc1cccc(-c2c[nH]c3ncc(-c4cnn(C5CCNCC5)c4)cc23)c1 [29d],–,non-toxic in MRC5 cells,"stability in mouse plasma (Mouse plasma stability): stable in mouse plasma; Caco-2 efflux / transporter substrate (Caco-2): likely a substrate for P-gp; Caco-2 permeability (Caco-2): low permeability; brain penetration [2]: not appreciably brain-penetrant; Mean brain concentration ([2]; sparse sampling, 0.5 h, LLOQ = 9.77 ng/mL): <LLOQ"
